The text below walks through data of patent US5723103A, “Substituted benzamides and radioligand analogs and methods of use” (Vanderbilt University, priority 1994, dated 1998).

Where two headings read alike, the source gives them in different places.

A short description of data set [1]: Apparent lipophilicity from reverse-phase HPLC at pH 7.4. The class given is physicochemical. As to conditions: not told. From the text: (b) Extrapolated reverse phase capacity factors in MOPS buffer at pH 7.4.
Data set [2] deals with T1, 5-HT-3 receptor (Rattus norvegicus, UniProt P35563).
T1 sequence (P35563 24-483): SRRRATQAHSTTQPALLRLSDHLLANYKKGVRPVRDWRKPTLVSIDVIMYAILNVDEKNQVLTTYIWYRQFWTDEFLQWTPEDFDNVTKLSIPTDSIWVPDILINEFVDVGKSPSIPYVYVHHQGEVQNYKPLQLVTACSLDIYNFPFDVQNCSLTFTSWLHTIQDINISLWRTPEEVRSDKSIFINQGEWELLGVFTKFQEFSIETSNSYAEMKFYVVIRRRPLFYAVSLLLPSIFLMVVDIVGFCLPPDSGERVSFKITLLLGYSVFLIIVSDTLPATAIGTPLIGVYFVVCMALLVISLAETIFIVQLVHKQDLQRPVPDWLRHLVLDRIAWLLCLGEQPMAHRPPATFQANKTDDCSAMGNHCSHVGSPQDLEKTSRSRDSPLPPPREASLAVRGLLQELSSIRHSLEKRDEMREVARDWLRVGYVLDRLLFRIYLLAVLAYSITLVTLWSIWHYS
Procedure: Evaluation of the compounds of the present invention was performed by incubating the radiolabeled agent with tissue homogenates known to contain these receptors. By inhibiting the binding with various concentrations of competing ligands the relative potencies of unlabeled analogs were determined. The apparent lipophilicities of the compounds of the invention were estimated from the retention times in reverse-phase HPLC at pH 7.4.

Data set [3] relates to emesis. The following applies: literature; cited from earlier work.
Data set [4] concerns the target 5-HT-3 receptor. The following applies: literature, cited from earlier work.
In data set [5] the test system is drug-induced anxiety. As to conditions: literature; cited from earlier work.
Data set [6] relates to animal behavioral models. The following applies: literature; cited from earlier work.
For data set [7], the target named is T1, 5-HT-3 receptor. It is filed as binding. Set-up: from tissue; host or cells: rat entorhinal cortex homogenate / membranes. As to conditions: rat entorhinal cortex. The source says: In all FIGS. 1-3, triangles represent total binding, open circles represent non-specific binding, and darkened circles represent specific binding.
Setting [8] is: extrapolated reverse phase capacity factors in MOPS buffer, read-out: log Papp (apparent lipophilicity).
[9] abbreviates: Ki, displacement of 0.64 nM [^125 I]-4 binding, Table 3, rat entorhinal cortex homogenate, HEPES buffer, nine concentrations 0.3 to 300 nM, triplicates.

For the compound `COc1ccc(I)cc1C(=O)N[C@@H]1CN2CCC1CC2` [TDP 915], the chromatographic logD in data set [1] (setting [8]) was 2.15.

Consider `COc1cc(Cl)cc(C(=O)N[C@@H]2CN3CCC2CC3)c1OC/C=C/I` [TDP 984], for which the chromatographic logD in data set [1] (setting [8]) was 2.58.

As to `O=C(N[C@@H]1CN2CCC1CC2)c1cc(I)ccc1OCCF` [TDP 920], the chromatographic logD in data set [1] (setting [8]) is 2.15.

In general, Ki refers to a dissociation constant, usually derived from enzyme kinetics or from competition with a known ligand. Consider `CCN1CCC[C@H]1CNC(=O)c1cc(I)cc(OC)c1OC` [epidepride], for which the affinity in data set [2], expressed as Ki, was 1040 nM.

As for `CCCOc1ccc(I)cc1C(=O)N[C@@H]1CN2CCC1CC2` [TDP 9l7], the chromatographic logD in data set [1] (setting [8]) was 2.81.

With `CC(C)Oc1c(I)cc(Cl)cc1C(=O)N[C@@H]1CN2CCC1CC2` [TDP 1062], the chromatographic logD in data set [1] (setting [8]) was 2.45.

Consider `COc1ccc(F)cc1C(=O)N[C@@H]1CN2CCC1CC2` [TDP 1087], for which, in data set [1] (setting [8]), the chromatographic logD is 1.34.

In the case of `COc1cc(Br)cc(C(=O)N[C@@H]2CN3CCC2CC3)c1OC` [TDP 923], the chromatographic logD in data set [1] (setting [8]) was 1.74.

As for `CCCOc1c(I)cc(Cl)cc1C(=O)N[C@@H]1CN2CCC1CC2` [TDP 1065], the chromatographic logD in data set [1] (setting [8]) is 2.7.

Compound `COc1cc(I)cc(C(=O)N[C@H]2CN3CCC2CC3)c1OC` [TDP 991, (R)-N-[3-1-Azabicyclo [2.2.2.]octyl]-5-iodo-2,3-dimethoxy-benzamide] gave a Ki in data set [2] (setting [9]) of 19 nM. Moreover, the chromatographic logD in data set [1] (setting [8]) was 1.87.

`COc1cc(N)c(Cl)cc1C(=O)N[C@@H]1CN2CCC1CC2` [(S)-zacopride, 5-chloro-4-amino-2-methoxy-N-(3-quinuclidinyl)benzamide]: the Ki in data set [2] (setting [9]) is 0.38 nM; in data set [4] ((S)-form of zacopride), 0.3 nM. In data set [3], the antiemetic activity result is “effective antiemetic agent”. The “block of drug-induced anxiety” value in data set [5] was “inactive”.

For the compound `c1ccc2nc(N3CCNCC3)ccc2c1` [quipazine], the inhibition constant Ki in data set [2] (setting [9]) amounted to 0.48 nM.

As for `COc1cc(N)c(Cl)cc1C(=O)N[C@H]1CN2CCC1CC2` [(R)-zacopride, 5-chloro-4-amino-2-methoxy-N-(3-quinuclidinyl)benzamide], in data set [6], the cognitive-enhancing properties result is given as “shows cognitive-enhancing properties”. The “affinity for the 5-HT-3 receptor relative to (S)-zacopride” value in data set [4] is listed as “ten times lower affinity”. Also, the “block of drug-induced anxiety” value in data set [5] is given as “able to block drug-induced anxiety”.

With `COc1c(OCCF)cc(Cl)cc1C(=O)N[C@@H]1CN2CCC1CC2` [TDP 999], the chromatographic logD in data set [1] (setting [8]) was 1.7.

As for `COc1ccc(Br)cc1C(=O)N[C@@H]1CN2CCC1CC2` [TDP 922], in data set [1] (setting [8]), the chromatographic logD was 2.02.

For `C=CCOc1ccc(I)cc1C(=O)N[C@@H]1CN2CCC1CC2` [TDP 918], the chromatographic logD in data set [1] (setting [8]) was 2.76.

Consider `CCOc1cc(Br)cc(C(=O)N[C@@H]2CN3CCC2CC3)c1OC` [TDP 924], for which the chromatographic logD in data set [1] (setting [8]) is 2.14.

Take `C=CCOc1c(I)cc(Cl)cc1C(=O)N[C@@H]1CN2CCC1CC2` [TDP 1046]: the chromatographic logD in data set [1] (setting [8]) was 2.63.

As to `O=C(N[C@@H]1CN2CCC1CC2)c1cc(Cl)cc(I)c1OCCCF` [TDP 1050], in data set [1] (setting [8]), the chromatographic logD was 2.38.

Consider `CN1[C@@H]2CC[C@H]1C[C@@H](OC(=O)c1cc(Cl)cc(Cl)c1)C2` [bemestron], for which the inhibitory constant (Ki) in data set [2] (setting [9]) was determined as 18.3 nM.

For `O=C(N[C@@H]1CN2CCC1CC2)c1cc(Cl)cc(I)c1OCCF` [TDP 1056], the chromatographic logD in data set [1] (setting [8]) was 1.95.

Consider `COc1cc(Cl)cc(C(=O)N[C@@H]2CN3CCC2CC3)c1OCCF` [TDP 994], for which the chromatographic logD in data set [1] (setting [8]) is 1.58.

As to `C#CCOc1c(I)cc(Cl)cc1C(=O)N[C@@H]1CN2CCC1CC2` [TDP 1053], the chromatographic logD in data set [1] (setting [8]) was 2.57.

For `CCOc1c(OC)cc(I)cc1C(=O)N[C@@H]1CN2CCC1CC2` [TDP 1022], in data set [1] (setting [8]), the chromatographic logD was 2.19.

What is called Kd is the concentration at which binding is half-saturated. A higher Kd goes with a looser complex. With `COc1cc([125I])cc(C(=O)N[C@@H]2CN3CCC2CC3)c1OC` [[^125 I]-4, (S)-N-[3-(1-azabicyclo[2.2.2]octyl)]-2,3-dimethoxy-5-[^125 I]iodobenzamide], the dissociation constant (Kd) in data set [7] was 1.5 nM.

Turning to `COc1c(I)cc(Cl)cc1C(=O)N[C@@H]1CN2CCC1CC2` [TDP 1040], in data set [1], the chromatographic logD worked out at 2.34.

Take `COc1cc(I)cc(C(=O)N[C@@H]2CN3CCC2CC3)c1OC` [TDP 960]: the Ki in data set [2] (setting [9]) turned out to be 1.35 nM. Moreover, the chromatographic logD in data set [1] (setting [8]) was 1.87.

Take `O=C(N[C@@H]1CN2CCC1CC2)c1cc(I)ccc1OCCCF` [TDP 921]: the chromatographic logD in data set [1] (setting [8]) is 2.44.

Take `CCOc1ccc(I)cc1C(=O)N[C@@H]1CN2CCC1CC2` [TDP 916]: the chromatographic logD in data set [1] (setting [8]) is 2.38.

As to `CC(C)Oc1ccc(I)cc1C(=O)N[C@@H]1CN2CCC1CC2` [TDP 919], the chromatographic logD in data set [1] (setting [8]) is 2.52.

For `CCOc1c(I)cc(Cl)cc1C(=O)N[C@@H]1CN2CCC1CC2` [TDP 1059], the chromatographic logD in data set [1] (setting [8]) is 2.47.
